Assay [1] deals with SK-OV-3 cells. In words: SK-OV-3 Cell Growth Inhibition Test (MTT Assay). It is filed as cell-based. The following applies: Homo sapiens, 72 h incubation. On the procedure:
SK-OV-3 Cell Growth Inhibition Test (MTT Assay)
Cell strains: SK-OV-3 (human ovarian cancer cell strains);
Culture medium: 90% McCoy's 5A+10% FBS;
(§1) 1. A plate (10 cm) of cells in logarithmic growth phase normally cultured was collected;
(§2) 2. The culture solution was sucked out. The plate was washed with 5 ml of PBS 1-2 times;
(§3) 3. PBS was sucked out. 1.5 ml of 0.25% pancreatin was added to infiltrate the cells for 1 min;
(§4) 4. The pancreatin was sucked out. The culture plate was placed in an incubator. Digestion was carried out for about 5 min at 37° C.;
5. 4.5 ml of complete culture solution was added to the culture plate to stop the digestion.T the cells were carefully scoured with micropipette (1 ml) to give a uniform cell suspension. The suspension was implanted into a 96-well cell culture disc by 4000 cells/100 μl per well. The culture plate was incubated overnight under 5% CO2 at 37° C. In day 2, 100 μl of culture solution comprising a compound was added in each well, and further incubated for 72 h under 5% CO2 at 37° C.
(§5) 6. The culture solution was sucked out;
(§6) 7. 100 μl of serum-free culture solution containing 0.5 mg/ml MTT was added in each well, and incubated for 3 h;
(§7) 8. The culture solution was carefully sucked out;
(§8) 9. 100 μl of DMSO was added in each well and vibrated to dissolve;
(§9) 10. OD values were determined at 490 nM.
(§10) 1. Calculation of Relative Inhibition Ratio The inhibition ratio of a compound on cell growth=(PC−n)/(PC−NC)×100%
(§11) IC50: Concentration of a compound where inhibition ratio was 50%. IC50 values were fitted with Origin7.5.

In assay [2] the test system is CCRF-CEM/T cells. In words: CCRF-CEM/T Cell Growth Inhibition Test (MTT Assay). Format: cell-based. The following applies: Homo sapiens, CCRF-CEM/T cells (resistant to paclitaxel), 72 h incubation. As to the method: CCRF-CEM/T Cell Growth Inhibition Test (MTT Assay)
Cell strains: CCRF-CEM/T (human acute lymphocytic cell leukemia cells);
triple lysate solution: 10% SDS, 5% isobutanol, 0.012M HCl.
1. Cells were cultured to exponential phase. The cells were suspension cells;
2. The cells were collected by centrifuge. The resulting cells were resuspended in a complete culture medium to a desired concentration. The cells suspension was implanted into a 96-well cell culture plate by 20000 cells per well. A compound was added in the wellsuch that the final volume of the system was 120 μl. The system was further incubated for 72 h under 5% CO2 at 37° C.
7. 30 μl of serum-free culture solution containing 2.5 mg/ml MTT was added in each well, and incubated for 3 h;
8. 150 μl of triple lysate solution was added in each well and placed to dissolve at the room temperature;
9. OD values were determined at 570 nM.
as §10, §11

Assay [3] concerns Fadu cells. In words: Fadu Cell Growth Inhibition Test (MTT Assay). It is filed as cell-based. As to conditions: Homo sapiens, 72 h incubation. On the procedure: Fadu Cell Growth Inhibition Test (MTT Assay)
Cell strains: Fudu (human head and neck cancer cell strains);
Culture medium: 90% EMEM+10% FBS;
as §1, §2, §3, §4
5. 4.5 ml of complete culture solution was added to the culture plate to stop the digestion. The cells were carefully scoured with micropipette (1 ml) to give a uniform cell suspension. The suspension was implanted into a 96-well cell culture plate by 6000 cells/100 μl per well. The culture plate was incubated overnight under 5% CO2 at 37° C. In day 2, 100 μl of culture solution comprising a compound was added in each well, and further incubated for 72 h under 5% CO2 at 37° C.
as §5, §6, §7
(§12) 9. 100 μl of DMSO was added in each welland vibrated to dissolve;
as §9, §10, §11

Assay [4] has as its system AsPC-1 cells. In words: AsPC-1 Cell Growth Inhibition Test (MTT Assay). Format: cell-based. The following applies: Homo sapiens, ASPC1, 72 h incubation. As to the method: AsPC-1 Cell Growth Inhibition Test (MTT Assay)
Cell strains: AsPC-1 (human pancreatic cancer cell strains);
as §1, §2, §3
4. The pancreatin was sucked out. The culture plate was placed in an incubator. Digestion was carried out for about 7.5 min at 37° C.;
5. 4.5 ml of complete culture solution was added to the culture plate to stop the digestion. The cells were carefully scoured with micropipette (1 ml) to give a uniform cell suspension. The suspension was implanted into a 96-well cell culture plate by 8000 cells/100 μl per well. The culture plate was incubated overnight under 5% CO2 at 37° C. In day 2, 100 μl of culture solution comprising a compound was added in each well, and further incubated for 72 h under 5% CO2 at 37° C.
as §5, §6, §7, §12, §9, §10, §11

The target in assay [5] is T1, Her2 kinase (Homo sapiens, UniProt P04626).
T1 construct: purchased Cell Signaling Tech #7382
T1 sequence (P04626 676-1255 limits assumed): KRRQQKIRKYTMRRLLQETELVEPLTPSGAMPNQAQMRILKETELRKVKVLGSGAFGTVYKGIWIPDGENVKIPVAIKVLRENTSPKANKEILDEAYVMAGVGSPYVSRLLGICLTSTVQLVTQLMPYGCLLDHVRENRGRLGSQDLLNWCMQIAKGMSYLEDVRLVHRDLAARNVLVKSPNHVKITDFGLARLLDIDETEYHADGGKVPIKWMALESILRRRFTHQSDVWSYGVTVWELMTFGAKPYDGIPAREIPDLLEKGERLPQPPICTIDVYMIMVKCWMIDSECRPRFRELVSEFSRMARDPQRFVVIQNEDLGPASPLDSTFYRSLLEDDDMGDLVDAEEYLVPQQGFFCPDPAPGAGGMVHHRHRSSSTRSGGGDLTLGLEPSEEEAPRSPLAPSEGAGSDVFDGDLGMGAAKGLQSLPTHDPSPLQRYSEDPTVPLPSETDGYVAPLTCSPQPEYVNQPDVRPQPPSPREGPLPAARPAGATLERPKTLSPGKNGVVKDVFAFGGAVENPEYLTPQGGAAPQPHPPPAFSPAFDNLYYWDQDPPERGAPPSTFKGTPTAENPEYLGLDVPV
In words: Inhibition Activity Assay on Her2 Enzyme (ELISA, PGT substrate). The following applies: 8 min at 4° C., read-out: Inhibition Activity (EC50) on Her-2. Format: biochemical. As to the method:
Inhibition Activity Assay on Her2 Enzyme
1. Her2 kinase, Cell Signaling Tech, #7382, Lot. 2, reserved at −80° C.;
2. PBST: PBS+0.05% (v/v) Tween 20;
3. Confining liquid: 3% of BSA in PBS;
4. HEPEs buffer (2×): 50 mM HEPEs, 20 mM MgCl2, 0.1 mM MnCl2, 0.2 mM Na3VO4, adjusted to pH of 7.4 with NaOH;
5. PGT, Sigma, Cat#P0275): 2 mg/ml of stock solution was prepared by dissolving PBS, reserved at −20° C.
6. ATP: […] of stock solution was prepared by dissolving ddH2O, reserved at −20° C.;
7. Mice anti-phosphorylation tyrosine-HRP: Invitrogen-037720, 0.5 mg/ml, reserved at 4° C.;
8. TMB: Cell Signaling Tech, Cat #7004L;
9. DTT: 2.5 M of stock solution was prepared with ddH2O, reserved at −20° C. Before use, 2×HEPEs buffer was added in the solution to the final concentration of 1.25 mM.
1. 2 mg/ml of PGT was diluted with PBS to 0.2 mg/ml. 60 μl of the resulting solution was added in each well. The elisa plate was placed in a refrigerator at 4° C. and coated overnight;
2. The coating solution was discarded to stop the coating. The plate was washed four times with PBS, and then beaten to dryness;
3. The elisa plate was placed in a refrigerator at 4° C., drained out and stood for 3h.
4. […] of aqueous solution of each compound was diluted with ddH2O to a desirable concentration. Then, the solution was added in the corresponding elisa well by 25 μl/well;
5. 2 nM of ATP solution was diluted with ddH2O to 25 folds and then sufficiently mixed. The resulting solution was separately added in each elisa well by 25 μl per well (25 μl ddH2O was added in the negative control);
6. Her2 kinase was diluted with 2×TKB to 800 folds. The resulting solution was added in the elisa well by 50 μl per well. Then, the enzyme reaction began. Moreover, the elisa plate was immediately placed in a micro-oscillator. The reaction is carried out for 8 min at the temperature of 4° C.;
7. 2% of SDS was added in the elisa well to stop the reaction by adding 100 μl of SDS in each well. The solution was sufficiently mixed on the micro-oscillator to sufficiently mix for about 5 min;
8. The reaction solution was sucked out. The plate was washed four times with PBST. After the plate was beaten to dryness, 0.25 μg/ml of mice anti-phosphorylation tyrosine-HRP which was diluted with confining liquid was added in the plate by 100 μl per well, and then reacted for 30 min at the room temperature.
9. The antibody reaction solution was sucked out. The plate was washed six times with PBST. After the plate was beaten to dryness, TMB peroxidase substrate was added in the plate with 100 μl/well, and then reacted in the dark for 15 min at the room temperature;
10. 100 μl of 2N H2SO4 was added in the solution to stop the chromogenic reaction. After the bubbles were cleansed, the solution was measured in elisa at 450 nm.
OD values were converted in relative inhibition ratios according to following formula: Relative inhibition ratio=[1−(experiment values−NC mean values)/(PC mean values−NC mean values)]×100%

Assay [6] deals with T2, EGFR-TK (Homo sapiens, UniProt P00533).
T2 construct: EGFR-TK: intracellular epidermal growth factor receptor phosphorylase
T2 sequence (P00533 669-1210 limits assumed): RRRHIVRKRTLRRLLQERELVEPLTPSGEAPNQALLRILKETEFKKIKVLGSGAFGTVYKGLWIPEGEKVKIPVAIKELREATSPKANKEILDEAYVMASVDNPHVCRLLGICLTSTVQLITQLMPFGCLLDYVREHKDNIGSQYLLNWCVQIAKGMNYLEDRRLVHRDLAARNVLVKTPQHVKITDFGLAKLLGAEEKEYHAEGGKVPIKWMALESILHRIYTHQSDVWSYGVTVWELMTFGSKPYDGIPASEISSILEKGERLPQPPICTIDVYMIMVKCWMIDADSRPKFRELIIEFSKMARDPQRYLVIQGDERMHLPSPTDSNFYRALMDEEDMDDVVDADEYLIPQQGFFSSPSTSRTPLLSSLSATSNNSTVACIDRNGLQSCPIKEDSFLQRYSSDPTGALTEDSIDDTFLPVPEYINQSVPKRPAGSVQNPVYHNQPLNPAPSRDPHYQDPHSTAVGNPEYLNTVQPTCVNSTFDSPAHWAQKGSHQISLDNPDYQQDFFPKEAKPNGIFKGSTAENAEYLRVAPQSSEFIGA
In words: Inhibition Test on EGFR-TK (ELISA, PGT substrate). It is filed as biochemical. The following applies: 20 min at room temperature, read-out: Inhibition Activity (EC50) on EGFR-TK phosphorylation. On the procedure: Inhibition Test on EGFR-TK
1. 2 mg/ml of PGT was diluted with PBS to 0.2 mg/ml. The resulting solution was added into elisa plate by 50 μl per well. The plate was placed in a refrigerator at 4° C. and coated overnight.
2. The coating solution was discarded to stop coating. The plate was washed three times with PBS, and then beaten to dryness.
3. The elisa plate was placed in a refrigerator at 4° C., drained out and stood for 2h.
4. The mother liquid of aqueous solution of each compound was diluted with double distilled water to four folds, i.e. a desirable concentration. Then, the compound was diluted and added in the corresponding elisa well by 25 μl/well.
5. […] of ATP solution was diluted with double distilled water to 50 folds and then sufficiently mixed. The resulting solution was separately added in each elisa well by 25 μl per well (except for the negative control).
6. EGFR kinase was diluted with 2×TKB to 800 folds. The solution was added in elisa well with 50 μl per well. Then, the enzyme reaction began. The elisa plate was immediately placed on a micro-oscillator and shaked to react for 20 min at the room temperature.
7. 2% of SDS was added in the elisa well to stop the reaction by adding 100 μl of SDS into each well. The solution was sufficiently mixed on the micro-oscillator to sufficiently mix for about 5 min.
8. The reaction solution was sucked out. The plate was washed four times with PBST. After the plate was beaten to dryness, 0.25 μg/ml of mice anti-phosphorylation tyrosine-HRP antibody which was diluted with blocking solution (3% solution of BSA in PBST) was added in the plate by 100 μl per well. The mixture was reacted for 30 min at the room temperature.
9. The antibody reaction solution was sucked out. The plate was washed four times with PBST. After the plate was beated to dryness, TMB peroxidase substrate was added to the plate by 100 μl/well. The mixture reacted in the dark for 15 min at the room temperature.
10. 100 μl of 2N H2SO4 was added in the plate to stop the chromogenic reaction. After the bubbles were cleansed, OD values were determined in ELIASA at 450 nm.
11. Formula for calculating inhibition percentage: […]

The test system of assay [7] is NCI-H460 cells. Briefly: NCI-H460 Cell Growth Inhibition Test (MTT Assay). The following applies: Homo sapiens, 72 h incubation. Format: cell-based. On the procedure:
NCI-H460 Cell Growth Inhibition Test (MTT Assay)
1. Cell strains: NCI-H460 (human large cell lung cancer cell strains);
as §1, §2
3. PBS was sucked out. 2 ml of 0.25% pancreatin was added to infiltrate the cells for 1 min;
4. The pancreatin was sucked out. The culture plate was placed in an incubator. Digestion was carried out for about 2 min at 37° C.;
5. 4 ml of complete culture solution was added to the culture plate to stop the digestion. The cells were carefully scoured with micropipette (1 ml) to give a uniform cell suspension. The suspension was implanted into a 96-well cell culture plate by 2500 cells/100 μl per well. The culture plate was incubated overnight under 5% CO2 at 37° C. In day 2, 100 μl of culture solution comprising a compound was added in each well, and further incubated for 72 h under 5% CO2 at 37° C.
as §5, §6, §7, §8, §9, §10, §11

Regarding `CN(C)C/C=C/C(=O)Nc1cc2c(Nc3ccc(OCc4ccccn4)c(Cl)c3)c(C#N)cnc2cc1OC1CCOC1` (stereo not shown) [Example 2, (E)-N-(4-(3-CHLORO-4-(PYRIDIN-2-YL-METHOXY)PHENYLAMINO)-3-CYANO-7-(TETRAHYDROFURAN-3-YL-OXY)QUINOLIN-6-YL)-4-(DIMETHYLAMINO)-BUT-2-ENAMIDE], the IC50 was determined as 331 nM in assay [1], 1800 nM in assay [2], 149 nM in assay [3] and 770 nM in assay [4].

In the case of `N#Cc1cnc2cc(OC3CCOC3)c(NC(=O)C=C3CCNCC3)cc2c1Nc1ccc(F)c(Cl)c1` (stereo not shown) [Example 42, N-(4-(3-CHLORO-4-FLUOROPHENYLAMINO)-3-CYANO-7-(TETRAHYDROFURAN-3-YL-OXY)QUINOLIN-6-YL)-2-(PIPERIDIN-4-YLIDENE)ACETAMIDE], in assay [5], the EC50 came to 291 nM.

For the compound `N#Cc1cnc2cc(OC3CCOC3)c(NC(=O)C=C3CCNCC3)cc2c1Nc1ccc(OCc2cccc(F)c2)c(Cl)c1` (stereo not shown) [Example 46, N-(4-(4-(3-FLUOROBENZYLOXY)-3-CHLOROPHENYLAMINO)-3-CYANO-7-(TETRAHYDROFURAN-3-YL-OXY)QUINOLIN-6-YL)-2-(PIPERIDIN-4-YLIDENE)ACETAMIDE], the concentration giving a half-maximal response (EC50) in assay [6] was 25 nM. This compound also registered an IC50 in assay [7] of 4000 nM.

The values are drawn from patent US9187458B2, “Cyanoquinoline derivatives” (Tianjin Hemay Bio-Tech Co., LTD., priority 2010, dated 2015).
